What was measured:
[1] = tested on: CD36; experiment: Immunostaining for CD36 in treated rat carotid arteries; assay type: in vivo; details: LPA 2.5 μM, 4 wk after treatment; LDL data not shown
Experimental: (§1) FIGS. 7A-D show immunohistological staining for PPARγ in rat carotid arteries. Only a few nuclei show PPARγ immunoreactivity in a carotid artery 4 wk after treatment with 2.5 μM LPA 20:0 (FIG. 7A). In contrast, the multilayered neointima elicited by LPA 20:4 expresses high levels of PPARγ immunoreactivity (FIG. 7B). Activation of PPARγ within neointima in LPA 20:4-treated carotid arteries is indicated by the strong expression of CD36 in a distribution that overlaps that of PPARγ (FIG. 7D). […] Anti-PPARγ and anti-CD36 were from Santa Cruz Biotechnology, Inc. Bars, 250 μm.
The scavenger receptor CD36, a PPARγ-regulated gene, contains a PPAR response element within its promoter between base pairs −273 and −261. CD36 plays a critical role in lipid uptake by binding and transporting oxidized lipids, including minimally oxidized LDL. Thus, this pathway could provide a source of ligands, such as lysophosphatidic acid, alkyl-GP, and AZ-PC, to sustain PPARγ activation. Acyl and alkyl forms of lysophosphatidic acid both accumulate in human atherosclerotic plaques. Lysophosphatidic acid activates CD36-mediated lipid uptake into macrophages through a PPARγ-PPRE-dependent mechanism.

[2] = tested on: vascular smooth muscle cells; experiment: Phenotypic modulation and dedifferentiation of cultured VSMCs (morphology, hCAD mRNA); assay type: cell-based, rat; details: for morphology of VSMCs: 1 μM for 3 days, cultures established in 2 ng/ml IGF-1
Experimental: Expression of lysophosphatidic acid-specific G protein-coupled plasma membrane receptors in rat carotid arteries was examined by RT-PCR as described earlier by Wang et al. (2002). To quantify heavy caldesmon mRNA, quantitative PCR was performed applying the real-time SYBR Green PCR method using a Sequence Detection System Model 7700 (Applied Biosystems) instrument. Rat heavy caldesmon and GAPDH (reference control mRNA)-specific primers were designed with Primer Express Software (Applied Biosystems), and forward and reverse primers were as follows: 5′-[…]-3′ (SEQ ID NO:1) and 5′-[…]-3′ (SEQ ID NO:2) for heavy caldesmon; 5′-[…]-3′ (SEQ ID NO:3) and 5′-[…]-3′ (SEQ ID NO:4) for GAPDH. Amplification reaction was performed with SYBR Green PCR Master Mix (Applied Biosystems) following the manufacturer's protocol. mRNA abundance calculation was based on Ct values as described previously (Wang et al., 2002). The expression level of heavy caldesmon mRNA was normalized to GAPDH mRNA. Each PCR reaction was performed at least three times, and the result was expressed as mean±SEM. Statistical comparison of mRNA expression was evaluated by ANOVA, and P<0.05 was considered statistically significant.
It has been reported that unsaturated lysophosphatidic acid species induced phenotypic modulation of cultured vascular smooth muscle cells (VSMCs). Because the neointimal response and PPARγ display a similar selectivity for unsaturated lysophosphatidic acid, that activation of PPARγ plays a role in the phenotypic dedifferentiation is hypothesized herein. This hypothesis was tested in a culture system in which IGF-1 maintains the differentiated spindle shape of vascular smooth muscle cells as indicated by high levels of heavy caldesmon (hCAD) mRNA expression.

[3] = tested on: rat carotid arteries; experiment: Induction of neointima formation in rat carotid artery by topical application; assay type: in vivo; details: for neointimal growth: 2.5 μM, 1 h exposure, monitored up to 8 wk (FIG. 4A)
Text: Briefly, the right carotid artery of anesthetized adult male Sprague-Dawley rats (250-300 g) was surgically exposed. The caudal origin of the common carotid artery was ligated using a vessel clip, followed by exposure and ligation of the internal carotid artery above the bifurcation. The external carotid artery was exposed, and a polyethylene catheter was inserted such that it never reached the common carotid artery, thereby avoiding mechanical injury to the vessel. The clip occluding the common carotid artery was temporarily released, and the vessel was rinsed with a retrograde injection of 500 μl physiological saline to remove residual blood. The vessel was again clipped, and 100 μl of treatment solution was injected. After 60 min of incubation, the cannula was withdrawn, the external carotid artery was ligated, and blood flow was restored. Animals were allowed to recover and were killed 7-56 d later by intracardiac perfusion of 10% buffered formaldehyde (pH 7.4). The common carotid artery from the […] to the bifurcation was dissected, embedded in paraffin, and processed for histological analysis. Five μm-thick sections were cut and stained with hematoxylin and eosin or Masson's trichrome stain. Intima to media ratios were quantified using an image analysis system (Scion Image CMS-800).

[4] = tested on: PPARγ; experiment: Immunohistological staining for PPARγ in treated rat carotid arteries; assay type: in vivo; details: LPA 2.5 μM, 4 wk after treatment; LDL data not shown
Experimental: as §1
Expression of PPARγ protein was examined in rat carotid arteries exposed to lysophosphatidic acid or minimally oxidized LDL.

[5] = tested on: CD36(−273)-Rluc reporter gene; experiment: CD36(−273)-Rluc reporter gene (with PPRE) in CV-1 cells; assay type: cell-based; details: 10 μM, CV-1 cells (FIG. 7E)
Experimental: (§2) Therefore, the investigators compared the unique in vivo neointima-eliciting lysophosphatidic acid structure-activity relationship with that of PPARγ using an in vitro assay that utilizes an acyl-coenzyme A oxidase-luciferase (PPRE-Acox-Rluc) reporter gene construct containing a peroxisome proliferator-activated receptor response element. CV-1 cells were plated in 96-well plates (5×10^3 cells per well) in DME supplemented with 10% FBS. The next day, the cells were transiently transfected with 125 ng of pGL3-PPRE-acyl-CoA oxidase (Acox)-renilla luciferase), or 125 ng pGL3-CD36(−273), or pGL3-CD36(−261), 62.5 ng of pcDNAI-PPARγ, and 12.5 ng of pSV-β-galactosidase (Promega) using LipofectAMINE™ 2000 (Invitrogen). Twenty four hours after transfection, cells were treated with 1% FBS-supplemented OptiMEMI™ (Invitrogen) containing DMSO or test compound (10 μM) in DMSO for 20 h. Luciferase and β-galactosidase activities were measured with the Steady-Glo® Luciferase Assay System (Promega) and the Galacto-Light Plus™ System (Applied Biosystems), respectively. Samples were run in quadruplicate, and the mean±SE were calculated. Data are representative of at least three independent transfections. Student's t test was used for null hypothesis testing, and P<0.05 was considered significant.

[6] = tested on: CD36(−261)-Rluc reporter gene; experiment: CD36(−261)-Rluc reporter gene (deleted PPRE) in CV-1 cells; assay type: cell-based; details: 10 μM, CV-1 cells (FIG. 7E)
Experimental: as §2

[7] = biological target: LPA1 (Homo sapiens, UniProt Q92633); details: cited from earlier work
[8] = biological target: LPA2 (Homo sapiens, UniProt Q9HBW0); details: cited from earlier work
[9] = biological target: T1, LPA3 (Homo sapiens, UniProt Q9UBY5); details: cited from earlier work
T1 sequence (Q9UBY5 1-353): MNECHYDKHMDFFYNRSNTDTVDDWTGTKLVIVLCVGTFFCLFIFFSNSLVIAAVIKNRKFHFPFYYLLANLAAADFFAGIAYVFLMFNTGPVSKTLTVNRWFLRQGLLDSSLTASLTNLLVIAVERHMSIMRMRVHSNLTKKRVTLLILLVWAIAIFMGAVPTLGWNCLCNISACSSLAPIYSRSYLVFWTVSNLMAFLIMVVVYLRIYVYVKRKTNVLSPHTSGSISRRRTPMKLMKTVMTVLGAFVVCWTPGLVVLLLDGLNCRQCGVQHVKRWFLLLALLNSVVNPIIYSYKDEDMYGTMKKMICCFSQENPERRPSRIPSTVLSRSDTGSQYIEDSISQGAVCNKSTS

LPA2, sequence (Q9HBW0 whole entry, species assumed): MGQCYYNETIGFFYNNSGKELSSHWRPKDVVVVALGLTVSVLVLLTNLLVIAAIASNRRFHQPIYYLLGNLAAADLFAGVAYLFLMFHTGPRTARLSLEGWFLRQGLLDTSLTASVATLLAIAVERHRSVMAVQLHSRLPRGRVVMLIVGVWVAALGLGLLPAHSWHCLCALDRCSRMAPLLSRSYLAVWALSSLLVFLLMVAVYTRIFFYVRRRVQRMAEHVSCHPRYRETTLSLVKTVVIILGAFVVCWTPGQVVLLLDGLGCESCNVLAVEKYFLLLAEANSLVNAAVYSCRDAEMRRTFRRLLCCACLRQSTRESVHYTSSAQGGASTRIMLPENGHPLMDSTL
LPA1, sequence (Q92633 whole entry, species assumed): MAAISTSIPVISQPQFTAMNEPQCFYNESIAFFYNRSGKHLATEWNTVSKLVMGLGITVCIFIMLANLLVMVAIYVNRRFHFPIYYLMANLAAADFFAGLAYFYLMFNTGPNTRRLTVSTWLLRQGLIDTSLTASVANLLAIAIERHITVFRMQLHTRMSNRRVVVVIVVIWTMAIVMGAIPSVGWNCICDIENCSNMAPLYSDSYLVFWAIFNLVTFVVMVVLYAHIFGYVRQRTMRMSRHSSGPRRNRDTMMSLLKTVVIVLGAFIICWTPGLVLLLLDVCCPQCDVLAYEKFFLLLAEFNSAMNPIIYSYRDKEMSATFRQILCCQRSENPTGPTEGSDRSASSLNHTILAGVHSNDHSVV

SMILES | CD36 immunoreactivity in carotid artery [1] | morphology of VSMCs [2] | neointimal growth [3] | PPARγ immunoreactivity in carotid artery [4] | decrease of hCAD mRNA expression ([2]; quantitative RT-PCR, day 5 (FIG. 8I)) | neointima formation when delivered as BSA complexes ([3]; Rosi 10 μM, LPA 20:4 2.5 μM, 10 μM albumin, 2 wk after treatment (FIG. 7F)) | neointima formation when delivered in rat plasma or serum ([3]; Rosi 10 μM, LPA 20:4 2.5 μM, 2 wk after treatment (FIG. 7F)) | stimulation of CD36(−273)-Rluc reporter gene [5] | stimulation of CD36(−261)-Rluc reporter gene (deleted PPRE) [6] | activity at LPA1 [7] | activity at LPA2 [8] | activity at LPA3 [9]
CCCCCCCCCCCCCCCCCCCC(=O)OC[C@@H](O)COP(=O)(O)O [LPA 20:0] | no increase in immunoreactivity | maintained the spindle-like differentiated morphology | completely inactive | only a few stained nuclei | – | – | – | – | – | – | – | –
CCCCC/C=C\C/C=C\C/C=C\C/C=C\CCCC(=O)OC[C@@H](O)COP(=O)(O)O [LPA 20:4] | intense CD36 immunoreactivity | developed a fibroblast-like flattened morphology | elicited progressive neointimal growth | intense PPARγ immunoreactivity | most pronounced | elicited neointima formation | no neointima formation was detected | elicited significant stimulation | neither Rosi nor lysophosphatidic acid 20:4 activated the reporter gene | – | – | –
CCCCCCCCCCCCOP(=O)(O)O [fatty alcohol phosphate 12:0] | – | – | – | – | – | – | – | – | – | without any effect | specific agonist | antagonist
